Measurements as given in US10004701B2, “Methods and compositions for treating infection” (UNIVERSITY OF ROCHESTER, priority 2012, dated 2018).
Counter-ions that a name gives are not always drawn. Like-named read-outs stand apart in the source and are kept apart here.

What was measured:
Assay in all cases: AK assay 384-well format, Prestwick library screening
[1] = test system: S. aureus strain USA300-0114; type: cell-based, Staphylococcus aureus; conditions: 50 μM final drug concentration; for fold induction at 50 µM: Staphylococcus aureus, USA300, 3 h
[2] = test system: E. cloacae; type: cell-based, Enterobacter cloacae; conditions: 50 μM final drug concentration; for fold induction at 50 µM: Enterobacter cloacae, 3 h
[3] = test system: P. aeruginosa; type: cell-based, Pseudomonas aeruginosa; conditions: 50 μM final drug concentration; for fold induction at 50 µM: Pseudomonas aeruginosa, 3 h
[4] = test system: A. baumannii strain 98-37-09; type: cell-based, Acinetobacter baumannii; conditions: 50 μM final drug concentration; for fold induction at 50 µM: Acinetobacter baumannii, 983709, 3 h
[5] = test system: E. faecium; type: cell-based, Enterococcus faecium; conditions: 50 μM final drug concentration; for fold induction at 50 µM: Enterococcus faecium, 3 h
[6] = test system: E. coli; type: cell-based, Escherichia coli; conditions: 50 μM final drug concentration; for fold induction at 50 µM: Escherichia coli, 3 h
[7] = test system: K. pneumoniae; type: cell-based, Klebsiella pneumoniae; conditions: 50 μM final drug concentration; for fold induction at 50 µM: Klebsiella pneumoniae, 3 h
[8] = planktonic, cutoff for positive-scoring molecules 3-fold increase
[9] = planktonic, cutoff for positive-scoring molecules 3-fold increase, read-out: AK-based Prestwick Library Screening Results, S. aureus (fold increase in extracellular AK activity)
[10] = planktonic, cutoff for positive-scoring molecules 3-fold increase, read-out: AK-based Prestwick Library Screening Results, E. cloacae (fold increase in extracellular AK activity)
[11] = planktonic, cutoff for positive-scoring molecules 3-fold increase, read-out: AK-based Prestwick Library Screening Results, P. aeruginosa (fold increase in extracellular AK activity)
[12] = planktonic, cutoff for positive-scoring molecules 3-fold increase, read-out: AK-based Prestwick Library Screening Results, A. baumannii (fold increase in extracellular AK activity)
[13] = planktonic, cutoff for positive-scoring molecules 3-fold increase, read-out: AK-based Prestwick Library Screening Results, E. faecium (fold increase in extracellular AK activity)
[14] = planktonic, cutoff for positive-scoring molecules 3-fold increase, read-out: AK-based Prestwick Library Screening Results, E. coli (fold increase in extracellular AK activity)
[15] = planktonic, cutoff for positive-scoring molecules 3-fold increase, read-out: AK-based Prestwick Library Screening Results, K. pneumoniae (fold increase in extracellular AK activity)

`CN(C)CCOC(=O)C(c1ccccc1)C1(O)CCCC1` (stereo not drawn) [Cyclopentolate hydrochloride] showed a fold induction at 50 µM ([1]; planktonic S. aureus, positive cutoff 3-fold increase, read-out: AK-based Prestwick library screening result, S. aureus (fold increase in extracellular AK activity)) of 1.1, a fold induction at 50 µM ([2]; planktonic E. cloacae, positive cutoff 3-fold increase, read-out: AK-based Prestwick library screening result, E. cloacae (fold increase in extracellular AK activity)) of 1.3 and a fold induction at 50 µM ([3]; planktonic P. aeruginosa, positive cutoff 3-fold increase, read-out: AK-based Prestwick library screening result, P. aeruginosa (fold increase in extracellular AK activity)) of 1.1. It also gave a fold induction at 50 µM ([4]; planktonic A. baumannii, positive cutoff 3-fold increase, read-out: AK-based Prestwick library screening result, A. baumannii (fold increase in extracellular AK activity)) of 1, a fold induction at 50 µM ([5]; planktonic E. faecium, positive cutoff 3-fold increase, read-out: AK-based Prestwick library screening result, E. faecium (fold increase in extracellular AK activity)) of 1 and a fold induction at 50 µM ([6]; planktonic E. coli, positive cutoff 3-fold increase, read-out: AK-based Prestwick library screening result, E. coli (fold increase in extracellular AK activity)) of 1.2. The fold induction at 50 µM ([7]; planktonic K. pneumoniae, positive cutoff 3-fold increase, read-out: AK-based Prestwick library screening result, K. pneumoniae (fold increase in extracellular AK activity)) was 1.
With Isoetharine mesylate salt the “AK-based Prestwick Library Screening Results, S. aureus (fold increase in extracellular AK activity)” value ([1]; planktonic, […]) was 0.6, the “AK-based Prestwick Library Screening Results, E. cloacae (fold increase in extracellular AK activity)” value ([2]; planktonic, […]) was 0.9 and the “AK-based Prestwick Library Screening Results, P. aeruginosa (fold increase in extracellular AK activity)” value ([3]; planktonic, […]) was 0.6. For the same compound, the “AK-based Prestwick Library Screening Results, A. baumannii (fold increase in extracellular AK activity)” value ([4]; planktonic, […]) was 0.8, the “AK-based Prestwick Library Screening Results, E. faecium (fold increase in extracellular AK activity)” value ([5]; planktonic, […]) was 0.9 and the “AK-based Prestwick Library Screening Results, E. coli (fold increase in extracellular AK activity)” value ([6]; planktonic, […]) was 0.9. For the same compound, the “AK-based Prestwick Library Screening Results, K. pneumoniae (fold increase in extracellular AK activity)” value ([7]; planktonic, […]) was 1.4.
In the case of `CC(=O)N(CC(C)C(=O)O)c1c(I)cc(I)c(N)c1I` (stereo not drawn) [locetamic acid], the “AK-based Prestwick Library Screening Results, S. aureus (fold increase in extracellular AK activity)” value [1, 8] is reported as 0.8, the “AK-based Prestwick Library Screening Results, E. cloacae (fold increase in extracellular AK activity)” value [2, 8] is reported as 1.4 and the “AK-based Prestwick Library Screening Results, P. aeruginosa (fold increase in extracellular AK activity)” value [3, 8] is reported as 0.9. For the same compound, the “AK-based Prestwick Library Screening Results, A. baumannii (fold increase in extracellular AK activity)” value [4, 8] was 0.8, the “AK-based Prestwick Library Screening Results, E. faecium (fold increase in extracellular AK activity)” value [5, 8] was 0.9 and the “AK-based Prestwick Library Screening Results, E. coli (fold increase in extracellular AK activity)” value ([6]; planktonic, […]) was 0.9. For the same compound, the “AK-based Prestwick Library Screening Results, K. pneumoniae (fold increase in extracellular AK activity)” value [7, 8] was 0.8.
Compound `COC1=CC(=O)O[C@@H](/C=C/c2ccccc2)C1` [Kawain] has a fold induction at 50 µM ([1]; planktonic S. aureus, 384-well, […], read-out: AK-based Prestwick Library Screening Results: S. aureus (increase in extracellular AK activity)) of 1, a fold induction at 50 µM ([2]; planktonic E. cloacae, 384-well, […], read-out: AK-based Prestwick Library Screening Results: E. cloacae (increase in extracellular AK activity)) of 1.4 and a fold induction at 50 µM ([3]; planktonic P. aeruginosa, 384-well, […], read-out: AK-based Prestwick Library Screening Results: P. aeruginosa (increase in extracellular AK activity)) of 1. The fold induction at 50 µM ([4]; planktonic A. baumannii, 384-well, […], read-out: AK-based Prestwick Library Screening Results: A. baumannii (increase in extracellular AK activity)) was 1.2, the fold induction at 50 µM ([5]; planktonic E. faecium, 384-well, […], read-out: AK-based Prestwick Library Screening Results: E. faecium (increase in extracellular AK activity)) was 1.1 and the fold induction at 50 µM ([6]; planktonic E. coli, 384-well, […], read-out: AK-based Prestwick Library Screening Results: E. coli (increase in extracellular AK activity)) was 1.1. It also gave a fold induction at 50 µM ([7]; planktonic K. pneumoniae, 384-well, […], read-out: AK-based Prestwick Library Screening Results: K. pneumoniae (increase in extracellular AK activity)) of 1.
In the case of `COC(=O)C1=C(C)NC(C)=C(C(=O)OCC(C)C)C1c1ccccc1[N+](=O)[O-]` (stereo not drawn) [Nisoldipine], the fold induction at 50 µM [1, 9] is reported as 0.4, the fold induction at 50 µM [2, 10] is reported as 1 and the fold induction at 50 µM [3, 11] is reported as 0.8. It also gave a fold induction at 50 µM [4, 12] of 1.4, a fold induction at 50 µM [5, 13] of 0.9 and a fold induction at 50 µM [6, 14] of 0.9. It also gave a fold induction at 50 µM [7, 15] of 0.7.
`O=C1O[C@H]([C@@H](O)CO)C(O)=C1O` [Ascorbic acid] gave a fold induction at 50 µM ([1]; planktonic S. aureus, 384-well, cutoff for positive-scoring molecules 3-fold increase, read-out: AK-based Prestwick Library Screening Results: S. aureus (increase in extracellular AK activity)) of 0.4, a fold induction at 50 µM ([2]; planktonic E. cloacae, 384-well, cutoff for positive-scoring molecules 3-fold increase, read-out: AK-based Prestwick Library Screening Results: E. cloacae (increase in extracellular AK activity)) of 0.4 and a fold induction at 50 µM ([3]; planktonic P. aeruginosa, 384-well, cutoff for positive-scoring molecules 3-fold increase, read-out: AK-based Prestwick Library Screening Results: P. aeruginosa (increase in extracellular AK activity)) of 0.3. For the same compound, the fold induction at 50 µM ([4]; planktonic A. baumannii, 384-well, cutoff for positive-scoring molecules 3-fold increase, read-out: AK-based Prestwick Library Screening Results: A. baumannii (increase in extracellular AK activity)) was 0.4, the fold induction at 50 µM ([5]; planktonic E. faecium, 384-well, cutoff for positive-scoring molecules 3-fold increase, read-out: AK-based Prestwick Library Screening Results: E. faecium (increase in extracellular AK activity)) was 0.9 and the fold induction at 50 µM ([6]; planktonic E. coli, 384-well, cutoff for positive-scoring molecules 3-fold increase, read-out: AK-based Prestwick Library Screening Results: E. coli (increase in extracellular AK activity)) was 0.5. For the same compound, the fold induction at 50 µM ([7]; planktonic K. pneumoniae, 384-well, cutoff for positive-scoring molecules 3-fold increase, read-out: AK-based Prestwick Library Screening Results: K. pneumoniae (increase in extracellular AK activity)) was 0.5.
Compound `COc1ccc(C(=O)c2ccccc2O)c(O)c1` [Dioxybenzone] has a fold induction at 50 µM [1, 9] of 0.5, a fold induction at 50 µM [2, 10] of 1 and a fold induction at 50 µM [3, 11] of 0.7. It also gave a fold induction at 50 µM [4, 12] of 0.6, a fold induction at 50 µM [5, 13] of 0.8 and a fold induction at 50 µM [6, 14] of 0.8. The fold induction at 50 µM [7, 15] was 0.7.
Work on `Cn1cnc2c1c(=O)[nH]c(=O)n2C` [Theobromine] yielded a fold induction at 50 µM ([1]; cutoff for positive-scoring molecules 3-fold increase, read-out: AK-based Prestwick Library Screening Results, S. aureus (fold increase in extracellular AK activity)) of 1.3, a fold induction at 50 µM ([2]; cutoff for positive-scoring molecules 3-fold increase, read-out: AK-based Prestwick Library Screening Results, E. cloacae (fold increase in extracellular AK activity)) of 1.4 and a fold induction at 50 µM ([3]; cutoff for positive-scoring molecules 3-fold increase, read-out: AK-based Prestwick Library Screening Results, P. aeruginosa (fold increase in extracellular AK activity)) of 1.2. It also gave a fold induction at 50 µM ([4]; cutoff for positive-scoring molecules 3-fold increase, read-out: AK-based Prestwick Library Screening Results, A. baumannii (fold increase in extracellular AK activity)) of 1.1, a fold induction at 50 µM ([5]; cutoff for positive-scoring molecules 3-fold increase, read-out: AK-based Prestwick Library Screening Results, E. faecium (fold increase in extracellular AK activity)) of 1.1 and a fold induction at 50 µM ([6]; cutoff for positive-scoring molecules 3-fold increase, read-out: AK-based Prestwick Library Screening Results, E. coli (fold increase in extracellular AK activity)) of 1.2. It also gave a fold induction at 50 µM ([7]; cutoff for positive-scoring molecules 3-fold increase, read-out: AK-based Prestwick Library Screening Results, K. pneumoniae (fold increase in extracellular AK activity)) of 1.2.
With `COc1ccc2c(c1)[nH]c1c(C)nccc12` [Harmine hydrochloride] the fold induction at 50 µM ([1]; planktonic, […], read-out: AK-based Prestwick Library Screening Results, S. aureus (fold increase in extracellular AK activity)) was 0.9, the fold induction at 50 µM ([2]; planktonic, […], read-out: AK-based Prestwick Library Screening Results, E. cloacae (fold increase in extracellular AK activity)) was 1.5 and the fold induction at 50 µM ([3]; planktonic, […], read-out: AK-based Prestwick Library Screening Results, P. aeruginosa (fold increase in extracellular AK activity)) was 1.2. It also gave a fold induction at 50 µM ([4]; planktonic, […], read-out: AK-based Prestwick Library Screening Results, A. baumannii (fold increase in extracellular AK activity)) of 1, a fold induction at 50 µM ([5]; planktonic, […], read-out: AK-based Prestwick Library Screening Results, E. faecium (fold increase in extracellular AK activity)) of 1.1 and a fold induction at 50 µM ([6]; planktonic, […], read-out: AK-based Prestwick Library Screening Results, E. coli (fold increase in extracellular AK activity)) of 1.1. For the same compound, the fold induction at 50 µM ([7]; planktonic, […], read-out: AK-based Prestwick Library Screening Results, K. pneumoniae (fold increase in extracellular AK activity)) was 0.7.
